In US12465617B2, “Methods and systems for inhibiting foreign-body responses in diabetic patients” (Medtronic MiniMed, Inc., priority 2013, dated 2025):
“Also recorded” adds a separate entry of the source.

Tests used:
diabetic porcine model = test: Site-loss evaluation of insulin infusion sets in diabetic porcine model (blood glucose >350 mg/dl not corrected by insulin); assay type: in vivo, pig; details: for site-loss performance versus the control: agent formulated with insulin (Humalog)
Procedure: The objectives of this study include duplicating the site-loss phenomena observed in previous studies using a diabetic porcine model. Additionally, various infusion set configurations are evaluated for reducing site-loss and extending infusion set wear. Further, site-loss is mitigated using a response-inhibiting agent and/or infusion pump to increase reliability of wear for 3 days and extend infusion set wear beyond 3 days.
The objectives of this study include: duplicating the site-loss phenomena observed in previous studies using the diabetic porcine model; using the established diabetic porcine model to evaluate the effects of various infusion set designs on infusion site-loss; and testing if site-loss can be mitigated by direct pump infusing of immunosuppressant/anti-inflammatory drugs, and/or by modifying infusion set by drug coating.
This study is designed so that each set (inserted under anesthesia) is to be worn for 1 week unless there was set failure/dislodge. Glucose is monitored by a blood glucose meter and Enlite™ sensor. The criteria for determining site loss is that blood glucose is greater than 350 mg/dl and fails to decrease following an insulin dose correction. During biopsy pumps are removed but the cannula is maintained in-situ. Site skin is examined for edema/erythema (swell/redness) (see FIG. 8).

[1] = test system: normal and diabetic Yucatan pigs; test: PK/PD study: blood glucose response to Humalog; assay type: in vivo, Yucatan pig
Description: Factors influencing insulin pK/pD properties include inflammation, infection, immune response, wound healing cascade, age of patients, type of insulin used, site of insertion, layer of scar tissue where the catheter tip resides, and several others. 6 Yucatan pigs were used in this study: 2 normal and 4 diabetic pigs, as shown in […]

diabetic pig = test: Histopathology of infusion sites (inflammation at catheter tip and body); assay type: in vivo; details: listed as Humalog™
Description: FIG. 2A is a series of histologic evaluations at the catheter tip showing the inflammatory response (score), and size of the area with tissue reaction. “*” indicates the catheter location and “F” indicates normal fat. […] FIG. 2B is a series of graphs illustrating the inflammation at the catheter tip for diabetic and non-diabetic pigs. Localized inflammation loosely correlated with site-loss.
FIG. 2C is a series of graphs illustrating the predominate inflammation cells at the catheter tip and catheter body (qualitative). To isolate the main inflammation contributors, a catheter, a catheter infused with insulin (Humalog™), and a catheter infused with placebo were placed on a diabetic pig at the same time.
FIG. 2D is a series of graphs illustrating the predominate inflammation cells at the catheter tip and catheter body of an insulin injection port (i-Port™). To isolate the main inflammation contributors, a catheter, a catheter infused with insulin, and a catheter infused with placebo were placed on a diabetic pig. Compared to continuous infusion, the giant cells are missing in the i-Port™ study. […] As observed by the pathologist, the pigs may have developed a hypersensitivity to the Humalog™ and such a reaction would contribute to the inflammation seen (the degree that hypersensitivity is influencing the inflammation is unclear but it could be one of the main drivers).

[2] = Assay of rapamycin/Humalog solution after use; assay type: physicochemical; details: 20 μg/mL solution assayed after use

C[C@@H]1C[C@H]2[C@@H]3CCC4=CC(=O)C=C[C@]4(C)[C@@]3(F)[C@@H](O)C[C@]2(C)[C@@]1(O)C(=O)COP(=O)(O)O [DXP, Dexamethasone Phosphate]
site-loss performance versus the control (diabetic porcine model): significantly worse than the control

Insulin lispro
blood glucose level lowering [1]: effectively lower blood glucose level | order of evaluated inflammation scores (diabetic pig; catheter, catheter infused with insulin, catheter infused with placebo on a diabetic pig): insulin≥placebo≥catheter; also recorded: insulin≥placebo≥cannula | localized inflammation / tissue fibrosis (diabetic pig; compared to catheter and placebo): associated with increased localized inflammation; also recorded: main contributor to localized tissue fibrosis

C[C@H]1C[C@H]2[C@@H]3CCC4=CC(=O)C=C[C@]4(C)[C@@]3(F)[C@@H](O)C[C@]2(C)[C@@]1(O)C(=O)COP(=O)([O-])[O-].[Na+].[Na+] [BSP, betamethasone sodium phosphate]
site-loss performance versus the control (diabetic porcine model): significantly worse than the control

heparin sodium
no site-loss occurred in (diabetic porcine model; U100 Humalog with heparin sodium 3.55 mg/mL (685 U/mL), continuous infusion, pigs IM3 and IM4, control IM1 site-loss in 2 days): > 6 days | site-loss performance versus the control (diabetic porcine model): significantly better than the control

CO[C@H]1C[C@@H]2CC[C@@H](C)[C@@](O)(O2)C(=O)C(=O)N2CCCC[C@H]2C(=O)O[C@H]([C@H](C)C[C@@H]2CC[C@@H](O)[C@H](OC)C2)CC(=O)[C@H](C)/C=C(\C)[C@@H](O)[C@@H](OC)C(=O)[C@H](C)C[C@H](C)/C=C/C=C/C=C/1C [Rapamycin]
recovery of infusion site after (diabetic porcine model; dosed with Humalog): around 6 days | duration of wear before site-loss (diabetic porcine model; formulation of insulin (Humalog) with agent, Sof-Set): 5 days | stability of rapamycin in U100 Humalog solution [2]: *Rapamycin was later found to be degraded by assaying solution after use.

Dextran Sulfate Sodium Salt
site-loss performance versus the control (diabetic porcine model): significantly better than the control
